# Assay results from patent US9085568B2, “Mineralocorticoid receptor antagonists” (Merck Sharp & Dohme Corp., priority 2011, dated 2015).
# pIC50: −log10 of the molar value.
# Molecular target: T1, full-length human Mineralocorticoid Receptor (MR) (Homo sapiens, UniProt P08235)
# T1 construct: host or cells: PathHunter CHO-K1 cells
# T1 sequence (P08235 1-984): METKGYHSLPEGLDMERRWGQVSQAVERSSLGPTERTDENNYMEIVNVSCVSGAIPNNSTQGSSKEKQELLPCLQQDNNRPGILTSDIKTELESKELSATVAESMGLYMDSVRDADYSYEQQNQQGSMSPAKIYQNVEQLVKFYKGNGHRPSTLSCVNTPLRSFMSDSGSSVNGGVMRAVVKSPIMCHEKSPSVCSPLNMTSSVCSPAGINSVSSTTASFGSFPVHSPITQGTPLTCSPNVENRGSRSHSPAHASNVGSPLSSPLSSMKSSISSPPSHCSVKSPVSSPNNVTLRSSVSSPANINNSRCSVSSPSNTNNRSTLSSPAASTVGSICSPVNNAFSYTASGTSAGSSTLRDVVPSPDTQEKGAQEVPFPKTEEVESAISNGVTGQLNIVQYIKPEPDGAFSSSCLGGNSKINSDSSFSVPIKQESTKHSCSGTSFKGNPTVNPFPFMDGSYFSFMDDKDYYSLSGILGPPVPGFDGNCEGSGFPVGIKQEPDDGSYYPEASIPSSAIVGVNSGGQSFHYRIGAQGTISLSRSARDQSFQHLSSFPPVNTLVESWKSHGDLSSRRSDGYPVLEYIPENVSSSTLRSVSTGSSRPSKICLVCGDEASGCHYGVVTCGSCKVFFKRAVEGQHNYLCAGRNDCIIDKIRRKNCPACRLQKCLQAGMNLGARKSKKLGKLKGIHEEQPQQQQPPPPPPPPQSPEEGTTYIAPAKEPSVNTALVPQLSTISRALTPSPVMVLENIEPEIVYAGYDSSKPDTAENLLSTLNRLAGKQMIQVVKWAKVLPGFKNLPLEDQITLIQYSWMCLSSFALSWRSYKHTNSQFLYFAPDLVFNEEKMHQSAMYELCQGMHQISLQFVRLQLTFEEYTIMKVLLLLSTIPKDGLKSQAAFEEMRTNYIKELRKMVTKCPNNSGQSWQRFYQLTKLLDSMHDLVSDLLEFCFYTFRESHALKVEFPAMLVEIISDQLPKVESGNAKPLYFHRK
# Assay: human MR NH Pro assay (PathHunter protein:protein interaction, MR antagonism)
# Format: cell-based
# Settings: PathHunter CHO-K1 cells overexpressing human MR; aldosterone (0.3 nM), 6 hours at 37° C.; antagonism of MR binding to coactivator peptide; read-out: IC50 Rating
# Procedure: The activity of the compounds of the present invention regarding mineralocorticoid receptor antagonism was evaluated using the following assay.
# The human MR NH Pro assay is a commercially available PathHunter™ Protein: Protein interaction assay (DiscoveRx; http://www.discoverx.com/nhrs/prod-nhrs.php) that measures the ability of compounds to antagonize full-length human Mineralocorticoid Receptor (MR) binding to a coactivator peptide.
# 3× PathHunter Detection Reagents (Cat #93-0001) (need ˜6 ml/plate). […] Control Agonist: Aldosterone: Sigma cat #A9477 • Prepare stock solution—10 μM in DMSO kept at −20° C. • for assay, dilute in assay media to 1.8 or 6 nM (6× of final concentration=about 0.3 nM to about 1.0 nM) • 5. Cell line: PathHunter CHO-K1 MR cells Cat #93-0456C2, Lot No: 09B0913, from operation liquid nitrogen stock. • 6. […] Methods: • Assay Set Up and Calculations: • 1. Cells were grown in F12+FBS+Hygromycin+pen/strep+Genetin • 2. Cells were collected with 0.05% trypsin and the cell suspension was spun and resuspended in a volume of F12+1.5% CD-FBS and counted. • 3. The cells were resuspended to 4×10^5 cells/mL. • 4. Cells were (25 μL/well) added to the wells of a 384 well plate. • 5. The plate was then incubated at 37° C. over night in a humidified incubator with 5% CO2. • 6. Test compounds were titrated starting at 4.4 mM, 10-point titration in 1:3 dilution. • 7.
# 5 μL of assay media was added to all wells in column 23 and 24. • 5. Plates were incubated 6 hrs at 37° C., 5% CO2. • 6. 15 μL 3× DiscoveRx detection reagent was added to each well. • 7. Plates were incubated for 1 hour at room temperature (plates stored in the dark). • 8.
row,SMILES,pIC50
1,"COc1cc(OC)cc(-c2nnc([C@@]3(Cc4ccccc4)NC(=O)N([C@H](C)c4ccccc4)C3=O)o2)c1 (single isomer, unassigned) [Compound 22]",5.70 to 6.30
2,"COc1cc(OC)cc(-c2n[nH]c(C3(Cc4ccccc4)OC(=O)N([C@H](C)c4ccc(F)cc4)C3=O)n2)c1 (stereo partly drawn) [Compound 1, 5-Benzyl-5-[5-(3,5-dimethoxyphenyl)-4H-1,2,4-triazol-3-yl]-3-[(1R)-1-(4-fluorophenyl)ethyl]-1,3-oxazolidine-2,4-dione]",5.70 to 6.30
3,"COc1cc(Cc2nnc([C@@]3(Cc4ccccc4)OC(=O)N([C@H](C)c4ccccc4)C3=O)o2)cc(OC)c1 [Compound 2, (5R)-5-Benzyl-5-[5-(3,5-dimethoxybenzyl)-1,3,4-oxadiazol-2-yl]-3-[(1R)-1-phenylethyl]-1,3-oxazolidine-2,4-dione]",> 7.00
4,"C[C@H](c1ccccc1)N1C(=O)O[C@](Cc2ccccc2)(c2nnc(C3(c4cc(F)cc(F)c4)CC3)o2)C1=O [Compound 9, (5R)-5-Benzyl-5-{5-[1-(3,5-difluorophenyl)cyclopropyl]-1,3,4-oxadiazol-2-yl}-3-[(1R)-1-phenylethyl]-1,3-oxazolidine-2,4-dione]",6.30 to 7.00
5,"COc1cc(N)cc(-c2nnc([C@@]3(Cc4ccccc4)OC(=O)N([C@H](C)c4ccccc4)C3=O)o2)c1 [Compound 10, (5R)-5-[5-(3-Amino-5-methoxyphenyl)-1,3,4-oxadiazol-2-yl]-5-benzyl-3-[(1R)-1-phenylethyl]-1,3-oxazolidine-2,4-dione]",6.30 to 7.00
6,"C[C@H](c1ccccc1)N1C(=O)O[C@](Cc2ccccc2)(c2nnc(CC(F)(F)F)o2)C1=O [Compound 11, (5R)-5-Benzyl-3-[(1R)-1-phenylethyl]-5-[5-(2,2,2-trifluoroethyl)-1,3,4-oxadiazol-2-yl]-1,3-oxazolidine-2,4-dione]",5.70 to 6.30
7,"C[C@H](c1ccccc1)N1C(=O)O[C@](Cc2ccccc2)(c2nnc(C3(C(F)(F)F)CC3)o2)C1=O [Compound 12, (5R)-5-Benzyl-3-[(1R)-1-phenylethyl]-5-{5-[1-(trifluoromethyl)cyclopropyl]-1,3,4-oxadiazol-2-yl}-1,3-oxazolidine-2,4-dione]",5.70 to 6.30
8,"C[C@H](c1ccccc1)N1C(=O)O[C@](Cc2ccccc2)(c2nnc(C3(c4ccncc4)CC3)o2)C1=O [Compound 14, (5R)-5-Benzyl-3-[(1R)-1-phenylethyl]-5-[5-(1-pyridin-4-ylcyclopropyl)-1,3,4-oxadiazol-2-yl]-1,3-oxazolidine-2,4-dione]",6.30 to 7.00
